Patent US7723301B2, “Pharmaceutical compositions comprising an anti-teratogenic compound and applications of the same” (The Board of Trustees of the University of Arkansas, priority 2007, dated 2010)

Assays:
[1] = test system: human embryonic fibroblasts (HEFs); test: Cell death by trypan blue staining in HEFs; format: cell-based
Experimental: (§1) Primary limb bud cells (PLBCs) were isolated from 60 pooled wing and hindlimb buds of HH stages 23/24 embryos. Fibroblasts were gained from HH stage 34 chicken embryos or from 13.5 d.p.c. mouse embryos. Human embryonic fibroblasts were provided by Matthias Maass (2). Before adding reagents, all cell types were cultured for 16 hours in D-MEM (Gibco) plus 10% fetal calf serum (FCS) and 2% chicken serum. Treatment with thalidomide, phthalimide, recombinant human (rh) BMP4 (300 ng/ml; R&D Systems), juglone (5 μM; Sigma), recombinant mouse Noggin (30, 300, 1000 ng/ml in FIG. 4B; 300 ng/ml in FIGS. 4C and 6A), anti-human-DKK1 antibody (35, 350 and 1000 ng/ml in FIG. 4B; 350 ng/ml in FIGS. 4C and 6A), LiCl (3, 30, 60 mM in FIG. 4B; 30 mM in FIGS. 4C, 6A and 6C) and/or (2Z,3E)-6-Bromoindirubin-3-oxime (BIO, Gsk3-Inhibitor IX; 50, 500, 1000 nM in FIG. 4B; 500 nM in FIG. 6A; 50 and 500 nM in FIG. 6C; Calbiochem) were performed in Optimem1 (Invitrogen) plus 1% FCS. Unless otherwise noted, all treatments with thalidomide and rh-BMP4 and associated controls were done for six hours. Inhibitors were applied once at the beginning of incubation with the exception of LiCl that was added 150 minutes before harvesting the cells for further analyses. Pre-treatment with phenyl-N-t-butylnitrone (PBN; 2 mM; Sigma) was performed for one hour. Incubations with juglone were performed for two hours, if applicable, after a pre-treatment with PBN, Noggin, anti-Dkk1 antibody, LiCl or Gsk3-Inhibitor IX for one hour.
(§2) Cell death in PLBCs, CEFs, MEFs and HEFs was detected by staining with trypan blue (0.1% (w/v) in PBS; Sigma) for 90 seconds. Cells were counted in a counting chamber to determine the ratio of dead to live cells.

[2] = test system: primary chicken embryonic fibroblasts (CEFs); test: Cell death by trypan blue staining in CEFs; format: cell-based; conditions: 38.7 μM (10 μg/ml), six hours
Experimental: as §1, §2

[3] = test system: Bmp4 and Dkk1 expression in PLBCs; test: sqRT-PCR of Bmp4 and Dkk1 expression in PLBCs; format: cell-based, chicken; conditions: 10 μg/ml, six hours
Experimental: as §1
(§3) RNA isolation, semi-quantitative RT-PCRs and whole mount in situ hybridizations were performed according to standard protocols that are well known within the art. RNA was isolated using TRIZOL (Gibco BRL) followed by DNAseI digestion. First strand synthesis was carried out with the Expand RT System (Roche) according to the manufacturer's instructions. PCR amplification was carried out primers and conditions within the knowledge of a person having skill in the relevant art. Quantifications were performed using NIH Image 1.62.

[4] = test system: limb buds of HH stages 23/24 chicken embryos; test: Whole mount TUNEL staining of limb buds; format: in vivo
Experimental: TUNEL staining was performed as described (7).

[5] = test system: Dkk1 and Bmp expression in limb buds; test: sqRT-PCR and whole mount in situ hybridization of Dkk1 and Bmp expression in limb buds; format: in vivo, chicken
Experimental: as §3

[6] = test system: Bmp4 and Dkk1 expression in HEFs; test: sqRT-PCR of Bmp4 and Dkk1 expression in HEFs; format: cell-based, human; conditions: 10 μg/ml, six hours
Experimental: as §1, §3

β-catenin = test: Sub-cellular localization of β-catenin in CEFs; format: cell-based, chicken; conditions: in the presence of Wnt3a, data not shown
Experimental: CEFs or HEFs attached on cover slips were incubated with Wnt3a-conditioned medium including thalidomide or solvent or with control medium for five hours. β-catenin was detected by using a mouse anti-β-catenin antibody (1:500, BD Transduction Laboratories), an anti-mouse Cy3-coupled secondary antibody (Dianova) and fluorescence microscopy. Afterwards, a DAPI staining was performed as a control. Quantification was done by counting the nuclei with a clear fluorescent signal in relation to the number of DAPI-stained nuclei.

[7] = test system: primary embryonic fibroblasts of mice (MEFs); test: Cell death by trypan blue staining in MEFs; format: cell-based, mouse
Experimental: as §1, with “Inhibitors were applied once at the beginning of incubation with the exception of LiCl that was added 150 minutes before harvesting the cells for further analyses. Pre-treatment with phenyl-N-t-butylnitrone (PBN; 2 mM; Sigma) was performed for one hour. Incubations with juglone were performed for two hours, if applicable, after a pre-treatment with PBN, Noggin, anti-Dkk1 antibody, LiCl or Gsk3-Inhibitor IX for one hour.” left out
as §2

[8] = test system: primary limb bud cells (PLBCs); test: Cell death by trypan blue staining in PLBCs; format: cell-based, chicken
Experimental: as §1, §2

Wnt/β-catenin signaling = test: TOPflash luciferase reporter assay in CEFs; format: cell-based, chicken; conditions: Wnt3a-conditioned medium, 24 hours
Experimental: Plasmids with wild type (TOPflash) or mutated (FOPflash) LEF/TCF binding sites (5) upstream of a luciferase reporter gene were transiently transfected into CEFs using Lipofectamine (Invitrogen). Following transfection for 24 hours, the cells were exposed to Wnt3a-conditioned medium or to control medium (6) with or without thalidomide or recombinant human DKK1 (150 ng/ml, R&D Biosystems) for 24 hours prior to luciferase assay. Values were normalized for transfection efficiency by co-transfection with a pSV-β-galactosidase vector and for the number of living cells. Luciferase activity was measured using the Dual-Light System (Applied Biosystems).

chicken embryos = test: Thalidomide-induced limb truncations and microphthalmia in chicken embryos; format: in vivo
Experimental: Fertilized eggs were purchased from Deindl GmbH, Rietberg-Varensell. They were incubated at 38° C. in a humidified incubator, windowed after one day and staged according to Hamburger and Hamilton (HH stage). Racemic thalidomide (Celgene), thalidomide enantiomers or phthalimide (Sigma) were dissolved in DMSO at 5 mg/ml and further diluted in PBS. Embryos were exposed to drugs by dropping 15 μg-3 mg thalidomide or phthalimide per kg egg weight (about 1-200 μg per embryo) in 50 μl DMSO/PBS as a single dose at HH stages 0-13 onto the embryo. Thalidomide (50 μg) or phthalimide (50 μg) in 10 μl DMSO was injected into the extra-embryonic blood vessels of HH 19 stage embryos. […] Recombinant Noggin, Dkk1 specific goat IgG (R&D Systems) or serum of non-immunized goats (Sigma) was dissolved in 0.1% BSA/0.01% Fast Green/PBS. Noggin (10 or 100 ng), Dkk1 specific goat IgG (5 or 50 ng) or serum of non-immunized goats (50 ng) was applied to a single embryo at HH stages 17-19 by injecting a 10 μl solution through the extra-embryonic membranes.
The morphology of the limbs was studied in specimens fixed in 5% trichloroacetic acid and stained for cartilage with alcian green as described (3).

[9] = chicken, in vivo, 7 day of incubation

SMILES: O=C1CCC(N2C(=O)c3ccccc3C2=O)C(=O)N1 (racemic) [thalidomide, 2-(2,6-dioxo-3-piperidyl)isoindole-1,3-dione]
- potential to induce PCD in HEFs [1]: very similar to that in chicken embryonic cells
- EC50 ([1]; Homo sapiens, Fibroblast, 6 h, treated for six hours, read-out: EC50 for induction of apoptosis (PCD) in HEFs): 8.9 µM
- induction of PCD in CEFs compared to controls [2]: six-fold
- expression of Bmp4 and Dkk1 in PLBCs [3]: induced the expression
- limb buds with enlarged ANZ (whole mount TUNEL staining) ([4]; HH stages 23/24 embryos): 22 of 40
- individual limb buds with enhanced PCD (TUNEL) ([4]; chicken, in vivo): 53%
- expression level of Bmp2 in limb buds (sqRT-PCR) ([5]; HH stages 23/24 embryos): not significantly affected
- expression of Bmp4, Bmp5 and Bmp7 in limb buds (sqRT-PCR) ([5]; HH stages 23/24 embryos): clearly up-regulated
- Dkk1 expression in limb buds (sqRT-PCR) ([5]; HH stages 23/24 embryos, in comparison to controls): dramatically enhanced
- limb buds with Bmp4 expression dramatically up-regulated (whole mount in situ hybridization) ([5]; HH stages 23/24 embryos, AER, ANZ and PNZ): 20 of 36
- limb buds with Dkk1 expression clearly enhanced (whole mount in situ hybridization) ([5]; HH stages 23/24 embryos, AER, underlying mesenchyme and ANZ): 19 of 64
- limb buds with enhanced Bmp expression and PCD ([5]; in vivo): 55%
- limb buds with increased Dkk1 expression ([5]; in vivo): 30%
- expression of Bmp4 and Dkk1 in HEFs [6]: induced the expression
- number of CEFs positive for nuclear β-catenin (β-catenin): dramatic reduction
- induction of cell death in MEFs ([7]; 38.7 μM (10 μg/ml), six hours): did not induce cell death
- induction of cell death in MEFs with longer incubation times and concentrations up to 100 μg/ml ([7]; up to 100 μg/ml, data not shown): did not significantly induce cell death above controls
- maximum of cell death in PLBCs ([8]; 38.7 μM (10 μg/ml), six to eight hours): about 6 -fold above control
- EC50 ([8]; Gallus gallus, 6 h, treated for six hours, read-out: EC50 for induction of PCD in PLBCs): 5 µM
- effect on Wnt3a-induced TOPflash activity (Wnt/β-catenin signaling): clearly counteracted
- embryonic lethality in comparison to solvent controls (chicken embryos; 750 μg/kg egg weight, HH stages 4/5, first seven days): did not significantly increase embryonic lethality
- EC50 for induction of limb and eye defects (chicken embryos; applied at HH stages 4/5): 50 μg/kg egg weight
- dose inducing a maximum of limb truncations and microphthalmia (chicken embryos; chicken, in vivo): 750 μg/kg egg weight
- other limb malformations (fusion at the level of the metacarpal cartilage, abducted legs), frequency in total (chicken embryos; chicken, in vivo): observed, but at a much lower frequency (in total 4%, data not shown).
- embryos showing both limb abnormalities and microphthalmia (chicken embryos; [9]): about 5%
- embryos with uni- or bilateral microphthalmia (chicken embryos; [9]): 21%
- effect of increasing the amount up to 3 mg/kg egg weight (chicken embryos; in vivo): neither influenced the quality nor the quantity of limb truncations or microphthalmia
- frequency of limb truncations and microphthalmia on application at later stages (chicken embryos; in vivo): clearly reduced the frequency of limb truncations and microphthalmia
